{
  "source": "patent US8956869B2",
  "about": "“Peptide inhibiting differentiation of hematopoietic stem cells or hematopoietic precursor cells and use of same” (Kyushu University, National University Corporation, priority 2009, dated 2015)",
  "format_in_all_cases": "cell-based",
  "key": {"[1]": {"test": "Confirmation of induction of cell death (PI staining, live cell ratio)", "settings": "human, liquid-cultured 11 days", "method": "(§1) (1-2) In order to confirm induction of cell death, cells that were liquid-cultured for 11 days in each experimental system were stained with PI, and the ratio of live cells was calculated based on the measured number of dead cells.\n(§2) The live cell ratio {(the number of live cells/(the number of live cells+the number of dead cells)} was calculated for each experimental system (control, positive control, KS-13 (1 μg/mL), and KS-13 (10 μg/mL)), using cells that were liquid-cultured for 11 days as the target cells. The results are shown below."}, "[2]": {"system": "human cord blood CD34(+) hematopoietic stem cell population", "test": "Confirmation of induction of cell death (PI staining, live cell ratio)", "settings": "KS-13 1 and 10 μg/mL, 11 days", "method": "as §1, §2"}, "[3]": {"system": "mouse fetal liver hematopoietic stem cells (CD45(+)c-Kit(+)Sca-1 (+))", "test": "Hematopoietic colony-forming cell assay", "settings": "for number of colonies: peptide 30 μg/mL, culturing for 12 days, 1,000 cells/dish", "method": "KS-13 (10 μg/mL or 30 μg/mL) was added to a semisolid medium (Methocult M3434 produced by STEMCELL Technologies) containing cell stimulatory factors (50 ng/mL of rm SCF, 10 ng/mL of rm IL-3, 10 ng/mL of rh IL-6, and 3 U/mL of rh EPO) (rm: recombinant form; rh: recombinant human form), and mouse fetal liver hematopoietic stem cells (CD45(+)c-Kit(+)Sca-1 (+)) (1,000 cells/dish) were cultured. Hematopoietic colony-forming cell assay was performed to evaluate the hematopoietic potential of the cells. Further, for comparison, hematopoietic colony-forming cell assay was performed in a similar manner using a KS-13-free liquid medium (none), and the hematopoietic potential of the cells was evaluated.\nMyristoylated KS-13 (30 μg/mL) in which the N-terminal of KS-13 (SEQ ID NO: 1) is myristoylated and control peptide (NQVSIGCPCDGKK: SEQ ID NO: 22) (30 μg/mL) were added to a semisolid medium (Methocult M3434 produced by STEMCELL Technologies) containing cell stimulatory factors (50 ng/mL of rm SCF, 10 ng/mL of rm IL-3, 10 ng/mL of rh IL-6, and 3 U/mL of rh EPO) (rm: recombinant form; rh: recombinant human form) to culture mouse fetal liver hematopoietic stem cells (CD45(+)c— Kit(+)Sca-1(+)) (1,000 cells/dish) therein. Then, hematopoietic colony-forming cell assay was performed to evaluate the hematopoietic potential of the cells."}},
  "note": "Where a SMILES comes first, the peptide text is derived from it. Where no end group is shown, it is not given here. The star is where a group is joined. Myristoyl = CCCCCCCCCCCCCC(=O)*",
  "data": [
    {"molecule": "CC[C@H](C)[C@H](NC(=O)[C@@H](NC(=O)[C@H](CS)NC(=O)[C@@H]1CCCN1C(=O)CNC(=O)[C@H](CC(=O)O)NC(=O)[C@H](CCCCN)NC(=O)[C@H](CCCCN)NC(=O)[C@H](CCC(N)=O)NC(=O)[C@@H](N)CS)C(C)C)C(=O)N[C@@H](CC(N)=O)C(=O)NCC(=O)N[C@@H](CO)C(=O)O", "note": "[KS-13, Cys Gln Lys Lys Asp Gly Pro Cys Val Ile Asn Gly Ser] (H-CQKKDGPCVINGS-OH)", "values": [
      {"measurement": "viability at 264 h, 1 µg/mL", "setting": "[1]; KS-13 1 μg/mL", "result": 97.5, "unit": "%"},
      {"measurement": "viability at 264 h, 10 µg/mL", "setting": "[1]; KS-13 10 μg/mL", "result": 97.6, "unit": "%"},
      {"measurement": "induction of cell death", "setting": "[2]", "result": "does not induce cell death"}
    ]},
    {"molecule": "NQVSIGCPCDGKK (Control peptide) [reference compound]", "values": [
      {"measurement": "number of colonies", "setting": "[3]", "result": 111.1}
    ]},
    {"molecule": "myristoylated KS-13: KS-13 (SEQ ID NO: 1) in which the N-terminal is myristoylated (Myristoyl-CQKKDGPCVINGS; cysteine pairing not given here; listed as Homo sapiens)", "values": [
      {"measurement": "colony formation versus control peptide", "setting": "[3]; 30 μg/mL, 12 days", "result": "inhibited colony formation more than the control"},
      {"measurement": "number of colonies", "setting": "[3]", "result": 93.9}
    ]}
  ]
}
